Assay results published in patent publication US7045528B2, “Benzofused heterozryl amide derivatives of thienopyridines useful as therapeutic agents, pharmaceutical compositions including the same, and methods for their use” (Agouron Pharmaceuticals, Inc., priority 2002, dated 2006).

Legend:
Mouse PK assay = type: in vivo; conditions: 50 mg/kg, B6 female mice, plasma; for AUC / Cmax: mouse, po
Description: The pharmacokinetics (e.g., absorption and elimination) of drugs in mice were analyzed using the following experiment. Test compounds were formulated as a suspension in a 30:70 (PEG 400:acidified H2O) vehicle. This solution was administered orally (p.o.) and intraperitoneally (i.p.) at 50 mg/kg to two distinct groups (n=4) of B6 female mice. Blood samples were collected via an orbital bleed at time points: 0 hour (pre-dose), 0.5 hr, 1.0 hr, 2.0 hr, and 4.0 hr post dose. Plasma was obtained from each sample by centrifugation at 2500 rpm for 5 min. Test compound was extracted from the plasma by an organic protein precipitation method. For each time bleed, 50 μL of plasma was combined with 1.0 mL of acetonitrile, vortexed for 2 min. and then spun at 4000 rpm for 15 min. to precipitate the protein and extract out the test compound. Next, the acetonitrile supernatant (the extract containing test compound) was poured into new test tubes and evaporated on a hot plate (25° C.) under a steam of N2 gas. To each tube containing the dried test compound extract, 125 μL of mobile phase (60:40, 0.025 M NH4H2PO4+2.5 mL/L TEA:acetonitrile) was added. The test compound was resuspended in the mobile phase by vortexing and more protein was removed by centrifugation at 4000 rpm for 5 min. Each sample was poured into an HPLC vial for test compound analysis on an Hewlett Packard 1100 series HPLC with UV detection. From each sample, 95 μL was injected onto a Phenomenex-Prodigy reverse phase C-18, 150×3.2 mm column and eluted with a 45–50% acetonitrile gradient run over 10 min. Test-compound plasma concentrations (μg/mL) were determined by a comparison to standard curve (peak area vs. conc. μg/mL) using known concentrations of test compound extracted from plasma samples in the manner described above. Along with the standards and unknowns, three groups (n=4) of quality controls (0.25 μg/mL, 1.5 μg/mL, and 7.5 μg/mL) were run to insure the consistency of the analysis. […] The quantitated test samples were plotted for visual display using Kalidagraph software and their pharmacokinetic parameters were determined using WIN NONLIN software.

PDGFRβ = target: T1, PDGFRβ (Homo sapiens, UniProt P09619); experiment: PAE-PDGFRβ phosphorylation in PAE-PDGFRB cells assay; type: cell-based; conditions: PAE cells overexpressing human PDGFRβ, PDGF-BB stimulated; read-out: PAE PDGFR autophos IC50 (nM) AVG
T1 construct: expressed in transfected cells; host or cells: porcine aorta endothelial (PAE)-PDGFRβ cells
T1 sequence (P09619 33-1106): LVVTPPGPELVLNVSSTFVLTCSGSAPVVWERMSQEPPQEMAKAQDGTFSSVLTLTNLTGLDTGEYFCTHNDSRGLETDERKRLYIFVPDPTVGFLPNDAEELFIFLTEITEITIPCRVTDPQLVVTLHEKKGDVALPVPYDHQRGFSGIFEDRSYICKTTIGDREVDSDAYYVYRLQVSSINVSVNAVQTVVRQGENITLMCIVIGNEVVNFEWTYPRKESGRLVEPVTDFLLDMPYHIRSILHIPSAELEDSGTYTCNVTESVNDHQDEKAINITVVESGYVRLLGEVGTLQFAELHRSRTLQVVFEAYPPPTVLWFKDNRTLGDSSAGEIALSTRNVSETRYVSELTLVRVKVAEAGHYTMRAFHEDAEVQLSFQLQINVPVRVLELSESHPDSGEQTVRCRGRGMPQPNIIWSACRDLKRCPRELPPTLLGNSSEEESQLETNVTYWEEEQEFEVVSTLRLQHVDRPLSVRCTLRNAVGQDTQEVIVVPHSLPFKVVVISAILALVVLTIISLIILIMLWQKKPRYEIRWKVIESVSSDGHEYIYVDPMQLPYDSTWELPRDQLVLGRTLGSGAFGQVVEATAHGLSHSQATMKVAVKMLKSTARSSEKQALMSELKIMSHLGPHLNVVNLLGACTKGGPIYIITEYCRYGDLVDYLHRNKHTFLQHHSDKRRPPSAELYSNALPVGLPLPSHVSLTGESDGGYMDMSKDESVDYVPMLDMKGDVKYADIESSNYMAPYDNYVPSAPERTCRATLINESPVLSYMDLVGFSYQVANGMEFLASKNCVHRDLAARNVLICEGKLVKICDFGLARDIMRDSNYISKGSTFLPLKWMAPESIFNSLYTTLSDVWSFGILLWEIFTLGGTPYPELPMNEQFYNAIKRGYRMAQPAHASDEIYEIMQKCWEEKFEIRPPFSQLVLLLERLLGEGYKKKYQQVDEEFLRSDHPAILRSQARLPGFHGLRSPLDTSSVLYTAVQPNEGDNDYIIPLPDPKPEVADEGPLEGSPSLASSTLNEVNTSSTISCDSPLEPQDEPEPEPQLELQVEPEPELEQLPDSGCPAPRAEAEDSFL
Method in brief: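 Inhibition of PDGF-BB-induced (1 μg/mL, 8 min, with 2 mM vanadate) PDGFRβ autophosphorylation in porcine aortic endothelial cells expressing the human receptor. Cells were starved 16 h and pretreated with compound 1 h at 37 °C. Lysates were captured with anti-PDGFRβ and probed with HRP-PY20 at 450 nm; four-parameter IC50.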

Row | mouse Cmin, po (Mouse PK assay) [ng/mL] | AUC (Mouse PK assay) [ng·h/mL] | Cmax (Mouse PK assay) [ng/mL] | IC50 (PDGFRβ) [nM] | Structure (SMILES)
1 | 4 | 120 | 51 | 172 | CNC(=O)c1c(C)n(C)c2cc(Oc3ccnc4cc(C(=O)N5CC[C@@H](O)C5)sc34)ccc12 [Example 19, 1,2-dimethyl-6-(2-[3-hydroxy-pyrrolidine-1-carbonyl]thieno[3,2-b]pyridin-7-yloxy)-1H-indole-3-carboxylic acid methylamide]
2 | 2793 | 183000 | 125000 | 164 | CNC(=O)c1c(C)sc2cc(Oc3ccnc4cc(-c5nccn5C)sc34)ccc12 [Example 1, 2-methyl-6-(2-[1-methyl-1H-imidazol-2-yl]thieno[3,2-b]pyridin-7-yloxy)benzo[b]thiophene-3-carboxylic acid methylamide]
3 | 342 | 8720 | 4120 | 32 | CNC(=O)c1c(C)n(C)c2cc(Oc3ccnc4cc(C(=O)N5CC[C@@H](OC)C5)sc34)ccc12 [Example 18, 1,2-dimethyl-6-(2-[3-methoxy-pyrrolidine-1-carbonyl]thieno[3,2-b]pyridin-7-yloxy)-1H-indole-3-carboxylic acid methylamide]
4 |  |  |  | 912 | CNC(=O)c1c(C)sc2cc(Oc3ccnc4cc(C(=O)N5CCC[C@H]5COC)sc34)ccc12 [Example 2, 6-(2-[(S)-2-(methoxymethyl)pyrrolidine-1-carbonyl]thieno[3,2-b]pyridin-7-yloxy)-2-methylbenzo[b]thiophene-3-carboxylic acid methylamide]
5 | 1700 | 63000 | 24800 | 41 | CNC(=O)c1c(C)oc2cc(Oc3ccnc4cc(-c5nccn5C)sc34)ccc12 [Example 13]
6 |  |  |  | 18.7 | CCCCNC(=O)c1c(C)n(C)c2cc(Oc3ccnc4cc(-c5nccs5)sc34)ccc12 [Example 62, 1,2-Dimethyl-6-(2-thiazol-2-yl-thieno[3,2-b]pyridin-7-yloxy)-1H-indole-3-carboxylic acid butylamide]
7 | 66 | 2450 | 956 | 756 | CNC(=O)c1c(C)sc2cc(Oc3ccnc4cc(C(=O)N5CCC[C@H]5CO)sc34)ccc12 [Example 3]
8 | 200 | 7670 | 2340 | 284 | CNC(=O)c1c(C)sc2cc(Oc3ccnc4cc(C(=O)N5CC[C@@H](OC)C5)sc34)ccc12 [Example 4, 6-(2-[(R)-3-methoxypyrrolidine-1-carbonyl]thieno[3,2-b]pyridin-7-yloxy)-2-methylbenzo[b]thiophene-3-carboxylic acid methylamide]
9 | 2334 | 71600 | 28800 | 20 | CNC(=O)c1c(C)n(C)c2cc(Oc3ccnc4cc(-c5nccn5C)sc34)ccc12 [Example 17, 1,2-dimethyl-6-(2-[1-methyl-1H-imidazol-2-yl]thieno[3,2-b]pyridin-7-yloxy)-1H-indole-3-carboxylic acid methylamide]
10 |  |  |  | 17.8 | CCCNC(=O)c1c(C)n(C)c2cc(Oc3ccnc4cc(-c5nccn5C)sc34)ccc12 [Example 61, 1,2-Dimethyl-6-[2-(1-methyl-1H-imidazol-2-yl)thieno[3,2-b]pyridin-7-yloxy]-1H-indole-3-carboxylic acid propylamide]
11 |  |  |  | 43 | Cc1c(C(=O)NC2CC2)c2ccc(Oc3ccnc4cc(-c5nccn5C)sc34)cc2n1C [Example 20, 1,2-Dimethyl-6-[2-(1-methyl-1H-imidazol-2-yl)-thieno[3,2-b]pyridin-7-yloxy]-1H-indole-3-carboxylic acid cyclopropylamide]
12 | 20 | 586 | 355 | 255 | CNC(=O)c1c(C)sc2cc(Oc3ccnc4cc(C(=O)N5CC[C@@H](O)C5)sc34)ccc12 [Example 6, 6-(2-[(R)-3-hydroxypyrrolidine-1-carbonyl]thieno[3,2-b]pyridin-7-yloxy)-2-methylbenzo[b]thiophene-3-carboxylic acid methylamide]
13 | 270 | 12000 | 5420 | 14.4 | CNC(=O)c1c(C)oc2cc(Oc3ccnc4cc(C(=O)N5CC[C@@H](OC)C5)sc34)ccc12 [Example 12, 6-(2-[3-methoxypyrrolidine-1-carbonyl]thieno[3,2-b]pyridin-7-yloxy)-2-methylbenzofuran-3-carboxylic acid methylamide]
